This is an account of results in ChEMBL document CHEMBL1201862, “PubChem BioAssay data set” (2004).

In experiment [1] the target is T1, Insulin-degrading enzyme (Homo sapiens, UniProt P14735).
T1 sequence (P14735 whole entry): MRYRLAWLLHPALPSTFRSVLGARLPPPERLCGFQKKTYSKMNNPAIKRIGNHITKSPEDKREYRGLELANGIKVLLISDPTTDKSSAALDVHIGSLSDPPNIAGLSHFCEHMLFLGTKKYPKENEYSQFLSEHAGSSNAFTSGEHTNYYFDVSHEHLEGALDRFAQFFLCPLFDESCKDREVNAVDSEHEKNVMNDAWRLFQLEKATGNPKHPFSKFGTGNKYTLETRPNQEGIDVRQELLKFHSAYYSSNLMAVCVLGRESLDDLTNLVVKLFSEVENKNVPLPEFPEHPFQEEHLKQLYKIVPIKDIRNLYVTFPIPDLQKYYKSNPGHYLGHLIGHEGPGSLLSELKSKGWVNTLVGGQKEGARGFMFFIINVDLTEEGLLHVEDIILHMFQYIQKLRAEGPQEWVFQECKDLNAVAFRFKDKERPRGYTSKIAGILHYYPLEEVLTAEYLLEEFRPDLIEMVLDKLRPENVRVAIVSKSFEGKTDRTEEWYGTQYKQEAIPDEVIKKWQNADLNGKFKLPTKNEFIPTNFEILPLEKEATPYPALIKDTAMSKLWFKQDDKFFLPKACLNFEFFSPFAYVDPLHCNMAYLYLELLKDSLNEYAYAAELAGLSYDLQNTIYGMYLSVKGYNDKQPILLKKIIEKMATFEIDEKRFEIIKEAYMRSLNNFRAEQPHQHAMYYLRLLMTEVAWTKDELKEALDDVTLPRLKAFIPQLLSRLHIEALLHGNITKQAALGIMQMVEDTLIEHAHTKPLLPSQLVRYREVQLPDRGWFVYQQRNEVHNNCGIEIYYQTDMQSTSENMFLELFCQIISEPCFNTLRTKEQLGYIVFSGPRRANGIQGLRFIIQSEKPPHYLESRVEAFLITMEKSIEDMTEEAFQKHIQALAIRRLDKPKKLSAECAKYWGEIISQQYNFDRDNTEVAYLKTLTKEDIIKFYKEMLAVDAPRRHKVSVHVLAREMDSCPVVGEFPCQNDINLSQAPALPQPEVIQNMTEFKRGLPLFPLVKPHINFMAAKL
The experiment can be described thus: cellular IDE activation of Abeta substrate cleavage – fluorescence polarization, HEK cells, dose response (AID 588439). In kind it is functional, cell-based. On the technique in general: In fluorescence polarisation assays a small probe gives low polarisation when free and higher when bound to something large.

Experiment [2] has as its system HEK293. Briefly: membrane integrity loss in HEK cells – cell-based, fluorescence, cytotoxicity control for IDE activator project, dose response (AID 588440).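 Note: cytotoxicity by LDH release measuring loss of membrane integrity.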 The settings on record: Homo sapiens. In kind it is functional.
The subject of experiment [3] is HEK293. The experiment can be described thus: optical interference in Abeta FP readout, dose response, artefact control for IDE activator project, biochemical, fluorescence polarization (AID 588442). To be noted: Homo sapiens. In kind it is functional, cell-based.
Experiment [4] addresses T2, Bcl-2-related protein A1 (Mus musculus, UniProt Q07440).
T2 sequence (Q07440 whole entry): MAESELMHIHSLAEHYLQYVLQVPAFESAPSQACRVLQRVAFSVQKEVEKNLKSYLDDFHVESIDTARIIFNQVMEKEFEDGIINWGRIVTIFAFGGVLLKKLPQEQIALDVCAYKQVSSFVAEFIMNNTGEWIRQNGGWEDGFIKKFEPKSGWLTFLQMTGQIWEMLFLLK
In kind it is functional.

In experiment [5] the target is T1, Insulin-degrading enzyme. The experiment can be described thus: recombinant IDE activation, cell-free – biochemical, fluorescence polarization, counter-screen for IDE activator project, dose response (AID 588681).
The nature of experiment [6]: Luminescence Cell-Based Dose Retest to Confirm Inhibitors of Cancer Stem Cells. [Related pubchem assays (depositor defined):AID2717, AID2721]. The settings on record: Homo sapiens. Format: functional.
Experiment [7] concerns the target T3, Ubiquitin-conjugating enzyme E2 N (Homo sapiens, UniProt P61088).
T3 sequence (P61088 whole entry): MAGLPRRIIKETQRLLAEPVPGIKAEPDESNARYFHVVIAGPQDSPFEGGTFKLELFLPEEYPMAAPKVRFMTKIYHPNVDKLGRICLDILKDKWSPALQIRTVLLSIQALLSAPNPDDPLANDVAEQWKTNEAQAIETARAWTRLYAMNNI
Format: functional.

Experiment [8] addresses T3, Ubiquitin-conjugating enzyme E2 N. In kind it is functional. The source holds these as a separate data set.
Experiment [9] deals with Voltage-gated inwardly rectifying potassium channel KCNH2 (Homo sapiens, UniProt Q12809). The settings on record: Potency.
For experiment [10], the target named is T4, Heat shock factor protein 1 (Mus musculus, UniProt P38532).
T4 sequence (P38532 whole entry): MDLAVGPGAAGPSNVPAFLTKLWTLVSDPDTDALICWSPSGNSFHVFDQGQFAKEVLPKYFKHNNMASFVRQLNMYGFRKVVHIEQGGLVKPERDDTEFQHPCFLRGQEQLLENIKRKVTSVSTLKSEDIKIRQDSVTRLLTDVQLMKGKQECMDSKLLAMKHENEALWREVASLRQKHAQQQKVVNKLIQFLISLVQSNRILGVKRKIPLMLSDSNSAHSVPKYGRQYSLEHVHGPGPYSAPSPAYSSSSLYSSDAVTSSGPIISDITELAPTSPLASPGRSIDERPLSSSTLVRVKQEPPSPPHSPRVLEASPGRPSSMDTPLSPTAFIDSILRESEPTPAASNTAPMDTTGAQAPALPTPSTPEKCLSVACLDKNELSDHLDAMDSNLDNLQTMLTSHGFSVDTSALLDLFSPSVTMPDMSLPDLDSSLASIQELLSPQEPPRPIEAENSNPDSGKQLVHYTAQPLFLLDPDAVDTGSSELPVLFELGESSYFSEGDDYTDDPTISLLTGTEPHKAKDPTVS
The experiment can be described thus: enhancement of HSF1-driven luciferase signal – cell-based, NIH3T3, luminescence, dose retest, confirmation (AID 435004).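 Note: stress induced by proteasome inhibitor MG132 added 30 min after compound; luciferase reporter driven by HSF1 response element in NIH3T3 cells; actives raise luminescence as potentiators of the MG132 stress response.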 In kind it is functional.

In experiment [11] the test system is INS1. The experiment can be described thus: INS-1E survival protection against cytokine death – cell-based, luminescence, retest, dose response (AID 449756).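 Note: cell death triggered by IL-1 beta plus TNF-alpha plus IFN-gamma mixture; protective hits raise ATP signal compared with cytokine alone wells.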 The settings on record: Rattus norvegicus. In kind it is functional.
The test system of experiment [12] is BJ. The experiment can be described thus: cells. Format: functional, cell-based. The settings on record: Homo sapiens.
Experiment [13] deals with BJ. The experiment can be described thus: BJ-TERT fibroblast viability loss – cell-based, RAS-independent, luminescence, dose response (AID 1933). In kind it is functional. To be noted: Homo sapiens.
Experiment [14] can be described thus: MIN6 cell viability loss – mouse insulinoma, cytotoxicity control, dose response (AID 2122).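 Note: confirmatory high-throughput counterscreen run to flag cytotoxic compounds.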 Format: functional.
Experiment [15] in a line: decrease of insulin promoter-GFP reporter – imaging, high-content screening, mouse beta cells (AID 1628). In kind it is functional. To be noted: MIN6.
Experiment [16] deals with BJ. The experiment can be described thus: growth inhibition of engineered Ras-driven BJ cells – cell-based, alamar blue fluorescence, cherrypicked samples, dose response (AID 2631).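 Note: confirmatory dose-response assay in RAS-dependent BJ fibroblasts engineered with TERT, LT and ST, with cytotoxicity read by fluorescence.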 The settings on record: Homo sapiens. In kind it is functional.
The nature of experiment [17]: DRD fibroblast viability loss – cell-based, non-viral oncogenic, luminescence, dose response (AID 1934). Format: functional. The settings on record: Homo sapiens.
Experiment [18] has as its system BJ. The experiment can be described thus: BJ-TERT-LT-ST fibroblast viability loss – cell-based, RAS-independent, luminescence, dose response (AID 1935).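 Note: BJ fibroblasts immortalized with TERT plus LT and ST oncogenes.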 To be noted: Homo sapiens. In kind it is functional.

Counter-ions that a name gives are not always drawn. The source made the active and inactive calls. Where only a bound is given, the exact number is not on record here.

Voltage-gated inwardly rectifying potassium channel KCNH2, sequence (Q12809 whole entry): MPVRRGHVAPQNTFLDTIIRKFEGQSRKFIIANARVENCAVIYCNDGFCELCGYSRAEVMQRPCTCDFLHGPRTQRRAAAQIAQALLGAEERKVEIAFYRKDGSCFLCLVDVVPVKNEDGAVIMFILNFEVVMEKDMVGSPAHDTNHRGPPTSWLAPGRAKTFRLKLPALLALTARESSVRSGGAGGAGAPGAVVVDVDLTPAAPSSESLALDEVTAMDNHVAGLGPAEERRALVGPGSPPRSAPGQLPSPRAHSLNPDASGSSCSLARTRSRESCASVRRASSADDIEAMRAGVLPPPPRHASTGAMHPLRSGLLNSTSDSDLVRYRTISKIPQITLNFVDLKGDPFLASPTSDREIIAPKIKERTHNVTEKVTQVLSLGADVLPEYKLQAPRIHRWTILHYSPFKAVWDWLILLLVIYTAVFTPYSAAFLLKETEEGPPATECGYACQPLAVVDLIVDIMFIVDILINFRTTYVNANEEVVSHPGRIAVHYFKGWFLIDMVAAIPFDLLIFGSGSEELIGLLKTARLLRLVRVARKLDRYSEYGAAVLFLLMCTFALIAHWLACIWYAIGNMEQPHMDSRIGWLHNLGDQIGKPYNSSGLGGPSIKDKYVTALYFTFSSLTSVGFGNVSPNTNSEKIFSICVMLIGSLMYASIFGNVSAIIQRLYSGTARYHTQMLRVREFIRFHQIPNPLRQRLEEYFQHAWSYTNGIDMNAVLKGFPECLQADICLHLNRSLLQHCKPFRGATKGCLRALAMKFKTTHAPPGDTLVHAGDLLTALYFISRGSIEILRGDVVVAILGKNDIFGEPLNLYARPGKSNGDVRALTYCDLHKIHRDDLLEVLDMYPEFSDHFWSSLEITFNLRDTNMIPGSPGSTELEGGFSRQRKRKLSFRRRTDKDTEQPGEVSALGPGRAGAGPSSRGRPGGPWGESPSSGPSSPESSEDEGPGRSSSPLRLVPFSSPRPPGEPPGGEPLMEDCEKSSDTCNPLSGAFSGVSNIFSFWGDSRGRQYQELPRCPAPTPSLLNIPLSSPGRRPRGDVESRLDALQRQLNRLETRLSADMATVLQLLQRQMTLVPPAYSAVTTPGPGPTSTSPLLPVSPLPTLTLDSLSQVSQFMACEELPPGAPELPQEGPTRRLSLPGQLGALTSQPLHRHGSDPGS

As for `FC(F)(F)c1cc(CCN2CCNC[C@H]2Cc2cccc3ccccc23)cc(C(F)(F)F)c1`, the EC50 in experiment [1] was 11.1 µM (inactive); in experiment [3], > 55.9 µM (inactive); in experiment [5], > 54.7 µM (inactive). For the same compound, the IC50 in experiment [2] was 10.1 µM (inactive); in experiment [4], > 20 µM (inactive); in experiment [7], 11.7 µM (active); in experiment [8], 9.82 µM (active). Besides, the AC50 in experiment [6] was 3.37 µM (active).
As for `COc1cccc(OC)c1OCCNCC1COc2ccccc2O1` (stereo not drawn) [2- (2,6-DIMETHOXYPHENOXYETHYL)AMINOMETHYL-1,4-BENZODIOXANE HYDROCHLORIDE (WB 4101)], the AC50 in [9] was 11.2 µM (inconclusive). Besides, in experiment [10], the EC50 was > 260 µM (inactive).
As for `CC(Oc1ccc(Cl)cc1Cl)c1nc(-c2ccc(NC(=O)c3cccnc3)cc2)no1` (stereo not drawn), the AC50 in experiment [11] was 0.61 µM (active). For the same compound, the EC50 in [12] is 3.32 µM (active); in [13], > 150 µM (not active); in experiment [16], > 66.7 µM (inactive); in experiment [17] it was 25.4 µM (active); in experiment [18], > 150 µM (not active). The figures for the IC50 in [14] and in experiment [15] were 0.928 µM (active) and 0.88 µM (active), respectively.

By EC50 is commonly meant the concentration giving half of the maximal effect. By IC50 is commonly meant the point on the concentration scale where inhibition reaches its midpoint. What is called AC50 is the midpoint of the concentration-response curve, whichever way the signal moves.
